Data as given in patent US9328386B2, “Markers for susceptibility to an inhibitor of an Src-family kinase” (Evotec (München) GmbH, priority 2011, dated 2016).
pIC50: −log10 of the molar value.

What was measured:
Assay in all cases: Cellular growth inhibition (CellTiter Glo viability assay)
Assay type in all cases: cell-based
H2009 NSCLC cell line = conditions: Homo sapiens
H520 NSCLC cell line = conditions: Homo sapiens
HCC366 NSCLC cell line = conditions: Homo sapiens
H157 NSCLC cell line = conditions: Homo sapiens
H2077 NSCLC cell line = conditions: Homo sapiens
H1648 NSCLC cell line = conditions: Homo sapiens
H460 NSCLC cell line = conditions: Homo sapiens
Calu6 NSCLC cell line = conditions: Homo sapiens
LouNH91 NSCLC cell line = conditions: Homo sapiens
PC9 NSCLC cell line = conditions: Homo sapiens
HCC78 NSCLC cell line = conditions: Homo sapiens
HCC4006 NSCLC cell line = conditions: Homo sapiens
H322M NSCLC cell line = conditions: Homo sapiens, NCI-H322M
H2172 NSCLC cell line = conditions: Homo sapiens
H2030 NSCLC cell line = conditions: Homo sapiens
H1395 NSCLC cell line = conditions: Homo sapiens
H1666 NSCLC cell line = conditions: Homo sapiens
HCC2279 NSCLC cell line = conditions: Homo sapiens
[1] = read-out: Sensitivity Bosutinib

## COc1cc(Nc2c(C#N)cnc3cc(OCCCN4CCN(C)CC4)c(OC)cc23)c(Cl)cc1Cl [bosutinib, 4-(2,4-dichloro-5-methoxyphenylamino)-6-methoxy-7-(3-(4-methylpiperazin-1-yl)propoxy)quinoline-3-carbonitrile]
H2009 NSCLC cell line; NCI-H2009, 96 h
  GI50: 2330 nM
H2009 NSCLC cell line; NCI-H2009, read-out: Sensitivity Bosutinib
  pIC50: < 5.82
H520 NSCLC cell line; NCI-H520, 96 h
  GI50: 2640 nM
H520 NSCLC cell line; NCI-H520, read-out: Sensitivity Bosutinib
  pIC50: < 5.82
HCC366 NSCLC cell line; HCC366, 96 h
  GI50: 1270 nM
HCC366 NSCLC cell line; HCC366, read-out: Sensitivity Bosutinib
  pIC50: > 5.82
H157 NSCLC cell line; NCI-H157, 96 h
  GI50: 1810 nM
H157 NSCLC cell line; NCI-H157, read-out: Sensitivity Bosutinib
  pIC50: < 5.82
H2077 NSCLC cell line; 96 h
  GI50: 3.79 µM
H2077 NSCLC cell line; [1]
  pIC50: < 5.82
H1648 NSCLC cell line; NCI-H1648, 96 h
  GI50: 3.72 µM
H1648 NSCLC cell line; NCI-H1648, read-out: Sensitivity Bosutinib
  pIC50: < 5.82
H460 NSCLC cell line; NCI-H460, 96 h
  GI50: 1370 nM
H460 NSCLC cell line; NCI-H460, read-out: Sensitivity Bosutinib
  pIC50: > 5.82
Calu6 NSCLC cell line; Calu-6, 96 h
  GI50: 2130 nM
Calu6 NSCLC cell line; Calu-6, read-out: Sensitivity Bosutinib
  pIC50: < 5.82
LouNH91 NSCLC cell line; LOU-NH91, 96 h
  GI50: 186 nM
LouNH91 NSCLC cell line; LOU-NH91, read-out: Sensitivity Bosutinib
  pIC50: > 5.82
PC9 NSCLC cell line; 96 h
  GI50: 234 nM
PC9 NSCLC cell line; PC-9, read-out: Sensitivity Bosutinib
  pIC50: > 5.82
HCC78 NSCLC cell line; HCC78, 96 h
  GI50: 3.04 µM
HCC78 NSCLC cell line; HCC78, read-out: Sensitivity Bosutinib
  pIC50: < 5.82
HCC4006 NSCLC cell line; HCC4006, 96 h
  GI50: 120 nM
HCC4006 NSCLC cell line; HCC4006, read-out: Sensitivity Bosutinib
  pIC50: > 5.82
H322M NSCLC cell line; 96 h
  GI50: 528 nM
H322M NSCLC cell line; [1]
  pIC50: > 5.82
H2172 NSCLC cell line; NCI-H2172, 96 h
  GI50: 2590 nM
H2172 NSCLC cell line; NCI-H2172, read-out: Sensitivity Bosutinib
  pIC50: < 5.82
H2030 NSCLC cell line; NCI-H2030, 96 h
  GI50: 896 nM
H2030 NSCLC cell line; NCI-H2030, read-out: Sensitivity Bosutinib
  pIC50: > 5.82
H1395 NSCLC cell line; NCI-H1395, 96 h
  GI50: 4.72 µM
H1395 NSCLC cell line; NCI-H1395, read-out: Sensitivity Bosutinib
  pIC50: < 5.82
H1666 NSCLC cell line; NCI-H1666, 96 h
  GI50: 1080 nM
H1666 NSCLC cell line; NCI-H1666, read-out: Sensitivity Bosutinib
  pIC50: > 5.82
HCC2279 NSCLC cell line; 96 h
  GI50: 3.25 µM
HCC2279 NSCLC cell line; [1]
  pIC50: < 5.82
